{
  "source": "patent US20250109127A1",
  "about": "“METHODS OF USE OF PHENOXYPROPYLAMINE COMPOUNDS TO TREAT DEPRESSION” (Minerva Neurosciences, Inc., priority 2013, published 2025)",
  "test_system": "dopamine release in the rat prefrontal cortex",
  "test": "Microdialysis: dopamine release in prefrontal cortex after I.P. administration",
  "format": "in vivo",
  "details": "for DOPAMINE in dialysate, MEAN / DOPAMINE in dialysate, individual animals: Citalopram 10 mg/kg I.P.",
  "description": "The aim of the study was to evaluate, using microdialysis, the effects of an intraperitoneal (I.P.) administration in rats of three different doses of SON-117 on dopamine and its metabolites, serotonin and its metabolite (5-HIAA), and norepinephrine levels in prefrontal cortex.\nThirty-two adult male Wistar rats were used for the whole study (4 groups of eight animals planned for the study, Table 1).\nSurgery was performed on rats weighing about 300 g at the beginning of the experiments. Rats were anaesthetized with Ketamine (50 mg/kg) & Xylazine (15 mg/kg) by intramuscular administration. The animals were placed in a stereotaxic apparatus in the flat-skull position at a constant setting of −3.3 mm between ear bars and the incisor bar. The animals were treated with a local anesthesic (xylocaine 1%, Astra Zeneca) and an analgesic (Temgesic, from Schering Plough, 0.05 mg/kg, s.c.). A rostrocaudal midline incision was made with a lancet to expose the dorsal skull surface. The “stereotaxic zero” was defined by the Bregma in accordance with Paxinos and Watson's atlas (1986). A hole was drilled in the skull with a drill and the meninges were pierced with a sterile needle to implant a CMA12 guide cannula which later received the dialysis probe.\nCoordinates used for implanting guide cannula in prefrontal cortex from Bregma were anteroposterior 3.7 mm, mediolateral 0.8 mm, and dorsoventral −2 mm (top of the probe was at −5 mm). The guide cannula was fixed to the skull with two stainless steel screws (1.88 mm outside diameter) anchored. An application of dental cement was added. A plastic collar allowed each animal to be tethered to a Swivel assembly of the CMA 120 awake animal system. Following surgery, rats were kept in individual cages and allowed to recover for a minimum of 3-5 days before the experimentation. The rats were handled and put in plastic bowl for 10 min at least every day to habituate the animals to their new environment for the dialysis. An I.P. administration with saline was also performed every day.\nDialysis probes (CMA12/3 mm, membrane, 20 kD cut-off, Carnegie Medicine, Stockholm, Sweden), were carefully washed before inserting into the guide cannula. The wash was performed with the artificial cerebrospinal fluid (aCSF) medium (NaCl 147 mM, KCl 2.7 mM, CaCl2 1.2 mM, MgCl2 0.85 mM) at room temperature. The dialysis system was then equilibrated at 20° C. at a perfusion rate of 1 μl/min with a Carnegie pump (CMA100). All catheters (FEP tubing, internal volume of 1.2 μl/10 cm, and tubing adaptors) used for microdialysis were treated in the same conditions.\nThe probes duly prepared were inserted into the guide cannula and the CMA120 Swivel assembly secured to the animal using a plastic collar. Flow through the dialysis probe with aCSF was maintained at a rate of 1 μl/min during the whole experimentation. The first four fractions (corresponding to 2 hours) were discarded to avoid the effects of parenchymal disturbance and to ensure that an approximate steady-state level was reached. Fractions were then collected over a period of 8.5 h during which time the animals remained quiet. The dialysates were automatically collected with an autosampler (microfraction collector CMA 140, Carnegie Medicin) and stored at −80° C. until analysis. […] Perfusion was then maintained for 7 hours with aCSF. The dialysates (30 μl) were collected into 300 μl vials, transferred into dry ice and then kept frozen (−80° C.) until analysis. Frozen samples were shipped to a partner for analysis. At the end of the microdialysis study, a PBS with colored ink was perfused through the probe in order to visualize the dialyzed area.\nCatecholamine assay: Concentrations of dopamine, DOPAC, HVA, 5-HIAA, 5-HT, and norepinephrin were determined for each sample by HPLC coupled with electrochemical detection.",
  "note": "“And” between values parts separate entries of the source, which are not always exact repeats. Equal values may be shown once.",
  "data": [
    {"compound": "CN(C)CCCC1(c2ccc(F)cc2)OCc2cc(C#N)ccc21", "note": "(centres unmarked) [Citalopram, citalopram, reference compound]", "values": [
      {"measurement": "DOPAMINE in dialysate, MEAN", "setting": "T0-T30 min", "result": "125.10 % of respective basal"},
      {"measurement": "DOPAMINE in dialysate, MEAN", "setting": "T30-T1 h", "result": "100.99 % of respective basal"},
      {"measurement": "DOPAMINE in dialysate, individual animals", "setting": "T30-T1 h", "result": "140.37 % of respective basal and 66.54 % of respective basal and 36.31 % of respective basal and 85.24 % of respective basal and 123.31 % of respective basal and 48.94 % of respective basal and 154.56 % of respective basal and 96.98 % of respective basal"},
      {"measurement": "DOPAMINE in dialysate, MEAN", "setting": "T1 h 30-T2 h", "result": "186.16 % of respective basal"},
      {"measurement": "DOPAMINE in dialysate, individual animals", "setting": "T1 h 30-T2 h", "result": "866.34 % of respective basal and 87.95 % of respective basal and 112.22 % of respective basal and 92.11 % of respective basal and 107.27 % of respective basal and 89.55 % of respective basal and 53.23 % of respective basal and 51.41 % of respective basal"},
      {"measurement": "DOPAMINE in dialysate, MEAN", "setting": "T1 h-T1 h 30", "result": "170.05 % of respective basal"},
      {"measurement": "DOPAMINE in dialysate, individual animals", "setting": "T1 h-T1 h 30", "result": "573.74 % of respective basal and 97.67 % of respective basal and 64.11 % of respective basal and 123.43 % of respective basal and 30.69 % of respective basal and 110.39 % of respective basal and 169.03 % of respective basal and 176.68 % of respective basal"},
      {"measurement": "DOPAMINE in dialysate, MEAN", "setting": "T2 h 30-T3 h", "result": "108.77 % of respective basal"},
      {"measurement": "DOPAMINE in dialysate, individual animals", "setting": "T2 h 30-T3 h", "result": "225.14 % of respective basal and 50.88 % of respective basal and 108.16 % of respective basal and 122.69 % of respective basal and 62.34 % of respective basal and 107.84 % of respective basal and 55.41 % of respective basal and 165.66 % of respective basal"},
      {"measurement": "DOPAMINE in dialysate, MEAN", "setting": "T2 h-T2 h 30", "result": "255.07 % of respective basal"},
      {"measurement": "DOPAMINE in dialysate, individual animals", "setting": "T2 h-T2 h 30", "result": "1031.09 % of respective basal and 91.06 % of respective basal and 160.05 % of respective basal and 100.78 % of respective basal and 166.56 % of respective basal and 132.77 % of respective basal and 334.66 % of respective basal and 26.69 % of respective basal"},
      {"measurement": "DOPAMINE in dialysate, MEAN", "setting": "T3 h 30-T4 h", "result": "115.67 % of respective basal"},
      {"measurement": "DOPAMINE in dialysate, individual animals", "setting": "T3 h 30-T4 h", "result": "243.96 % of respective basal and 23.86 % of respective basal and 113.64 % of respective basal and 73.20 % of respective basal and 174.87 % of respective basal and 59.22 % of respective basal and 97.27 % of respective basal and 119.98 % of respective basal"},
      {"measurement": "DOPAMINE in dialysate, MEAN", "setting": "T3 h-T3 h 30", "result": "151.97 % of respective basal"},
      {"measurement": "DOPAMINE in dialysate, individual animals", "setting": "T3 h-T3 h 30", "result": "49.37 % of respective basal and 157.89 % of respective basal and 78.55 % of respective basal and 231.36 % of respective basal and 125.19 % of respective basal and 190.71 % of respective basal and 225.63 % of respective basal"},
      {"measurement": "DOPAMINE in dialysate, MEAN", "setting": "T4 h 30-T5 h", "result": "103.71 % of respective basal"},
      {"measurement": "DOPAMINE in dialysate, individual animals", "setting": "T4 h 30-T5 h", "result": "201.72 % of respective basal and 24.62 % of respective basal and 85.39 % of respective basal and 56.71 % of respective basal and 60.52 % of respective basal and 195.94 % of respective basal and 92.15 % of respective basal"},
      {"measurement": "DOPAMINE in dialysate, MEAN", "setting": "T4 h-T4 h 30", "result": "197.23 % of respective basal"},
      {"measurement": "DOPAMINE in dialysate, individual animals", "setting": "T4 h-T4 h 30", "result": "337.02 % of respective basal and 36.95 % of respective basal and 127.24 % of respective basal and 110.17 % of respective basal and 45.45 % of respective basal and 94.94 % of respective basal and 255.00 % of respective basal and 192.48 % of respective basal"},
      {"measurement": "DOPAMINE in dialysate, MEAN", "setting": "T5 h 30-T6 h", "result": "143.61 % of respective basal"},
      {"measurement": "DOPAMINE in dialysate, individual animals", "setting": "T5 h 30-T6 h", "result": "63.71 % of respective basal and 183.35 % of respective basal and 112.87 % of respective basal and 229.69 % of respective basal and 57.13 % of respective basal and 228.31 % of respective basal and 145.07 % of respective basal"},
      {"measurement": "DOPAMINE in dialysate, MEAN", "setting": "T5 h-T5 h 30", "result": "151.58 % of respective basal"},
      {"measurement": "DOPAMINE in dialysate, individual animals", "setting": "T5 h-T5 h 30", "result": "209.25 % of respective basal and 54.45 % of respective basal and 141.19 % of respective basal and 97.47 % of respective basal and 150.97 % of respective basal and 246.92 % of respective basal"},
      {"measurement": "DOPAMINE in dialysate, MEAN", "setting": "T6 h 30-T7 h", "result": "152.65 % of respective basal"},
      {"measurement": "DOPAMINE in dialysate, individual animals", "setting": "T6 h 30-T7 h", "result": "300.59 % of respective basal and 88.72 % of respective basal and 128.46 % of respective basal and 71.16 % of respective basal and 147.69 % of respective basal and 77.59 % of respective basal and 325.54 % of respective basal and 82.54 % of respective basal"},
      {"measurement": "DOPAMINE in dialysate, MEAN", "setting": "T6 h-T6 h 30", "result": "90.10 % of respective basal"},
      {"measurement": "DOPAMINE in dialysate, individual animals", "setting": "T6 h-T6 h 30", "result": "138.93 % of respective basal and 48.75 % of respective basal and 107.97 % of respective basal and 57.49 % of respective basal and 83.90 % of respective basal and 102.96 % of respective basal and 83.47 % of respective basal and 66.13 % of respective basal"},
      {"measurement": "DOPAMINE in dialysate, MEAN", "setting": "T-30 min-T0 (pre-dose)", "result": "107.61 % of respective basal"},
      {"measurement": "DOPAMINE in dialysate, MEAN", "setting": "T-1 h 30-T-1 h (pre-dose)", "result": "77.78 % of respective basal"},
      {"measurement": "DOPAMINE in dialysate, individual animals", "setting": "T-1 h 30-T-1 h (pre-dose)", "result": "71.31 % of respective basal"},
      {"measurement": "DOPAMINE in dialysate, MEAN", "setting": "T-1 h-T-30 min (pre-dose)", "result": "98.79 % of respective basal"},
      {"measurement": "dopamine levels, increase (not significant)", "setting": "citalopram 10 mg/kg I.P., from T1.5 h and 2.5 h", "result": 255, "unit": "%"}
    ]}
  ]
}
